Results published in US10519099B2, “Cystobactamides” (priority 2014, dated 2019).
Values after ≈ are worked out from the molar mass of the structure shown.

Tested on: Escherichia coli (TolC-deficient)
Test: MIC microdilution, E. coli (TolC-deficient)
Format: cell-based
Conditions: Escherichia coli, read-out: MIC Escherichia coli (TolC-deficient)
Protocol: Indicator strains used in susceptibility assays were either part of our strain collection or purchased from the German Collection of Microorgansims and Cell Cultures (DSMZ) or from the American Type Culture Collection (ATCC). E. coli strain WT and corresponding E. coli mutants were kindly provided by Prof. Dr. P. Heisig, Pharmaceutical Biology and Microbiology, University of Hamburg. E. coli strains JW0401-1 (WT) and Δtsx were obtained from the CGSC collection.
MIC values were determined in standardized microdilution assays. Overnight cultures were diluted in the appropriate growth medium to achieve an inoculum of 10^4-10^6 cfu/mL. Yeasts were grown in Myc medium (1% phytone peptone, 1% glucose, 50 mM HEPES, pH 7.0), S. pneumonia and Enterococcus spp. in tryptic soy broth (TSB: 1.7% peptone casein, 0.3% peptone soymeal, 0.25% glucose, 0.5% NaCl, 0.25% K2HPO4; pH 7.3); M. smegmatis in Middlebrook 7H9 medium supplemented with 10% Middlebrook ADC enrichment and 2 ml/I glycerol). All other listed bacteria were grown in Müller-Hinton broth (0.2% beef infusion solids, 1.75% casein hydrolysate, 0.15% starch, pH 7.4). […] Growth inhibition was assessed by visual inspection and the MIC was defined as the lowest concentration of compound that inhibited visible growth.

O=C(O)c1cn(C2CC2)c2cc(N3CCNCC3)c(F)cc2c1=O [CP, Ciprofloxacin, reference compound]
MIC: 0.01 µg/mL (≈ 0.0302 µM)
